Series [1] is classed as physicochemical. An excerpt:
(§1) The [α]D, pKa, the retention factor and the critical micellar concentrations (CMC), important because related to the capacity to form micelles in the bile and function of the hydrophilic/lipophilic balance, have been determined on the A, B, C, D isomers of 22,23-methanate-ursodeoxycholic acid. The CMCs have been measured by the method of the solubilization of insoluble dyes such as Azulene and Orange OT (Roda et al., J. Biol. Chem., in press).

Series [2] is described as follows: physchem. The settings on record: c18 hplc, methanol/water; for K' (retention factor): pH 5.7.
Description: as §1
**K' = Retention factor. It has been calculated from the retention times
on HPLC using as stationary phase a C18 column and as mobile phase a
mixture of methanol/H2 O 130/70; pH 5.7.

Series [3] in a line: physchem.
Description: as §1
*Determined by potentiometric titration.

Series [4] in a line: Hepatic uptake in isolated rat livers (method of Mortimore). The class given is in vitro ADME. The conditions noted are these: isolated perfused liver, mean ± SD of five determinations.
Series [5] deals with bile lipid secretion. Description: Bile flow and bile lipid secretion in anaesthetized rats. Format: in vivo, Sprague-Dawley rats. The settings on record: 50 mg i.v., bile collected for 5 h; for Bile flow: controls 0.55 ± 0.12, *** p < 0.01 vs. controls; for Cholesterol secretion: controls 1.66 ± 0.12, *** p < 0.01 vs. controls; for Phospholipid secretion: controls 6.92 ± 0.44, *** p < 0.01 vs. controls (CUDCA); for BA (bile acids) secretion: controls 61 ± 8. The text has this:
*The control values were obtained on five rats studied under similar
conditions to the BA treated rats. Each value represents the mean plus or
minus the SD of five determinations.

Series [6] concerns the target human serum albumina (HSP) (Homo sapiens, UniProt P02768). Description: Interaction with human serum albumin (albumin affinity constant).

Like-named read-outs stand apart in the source and are kept apart here.

Sequence of human serum albumina (HSP) (P02768 25-609): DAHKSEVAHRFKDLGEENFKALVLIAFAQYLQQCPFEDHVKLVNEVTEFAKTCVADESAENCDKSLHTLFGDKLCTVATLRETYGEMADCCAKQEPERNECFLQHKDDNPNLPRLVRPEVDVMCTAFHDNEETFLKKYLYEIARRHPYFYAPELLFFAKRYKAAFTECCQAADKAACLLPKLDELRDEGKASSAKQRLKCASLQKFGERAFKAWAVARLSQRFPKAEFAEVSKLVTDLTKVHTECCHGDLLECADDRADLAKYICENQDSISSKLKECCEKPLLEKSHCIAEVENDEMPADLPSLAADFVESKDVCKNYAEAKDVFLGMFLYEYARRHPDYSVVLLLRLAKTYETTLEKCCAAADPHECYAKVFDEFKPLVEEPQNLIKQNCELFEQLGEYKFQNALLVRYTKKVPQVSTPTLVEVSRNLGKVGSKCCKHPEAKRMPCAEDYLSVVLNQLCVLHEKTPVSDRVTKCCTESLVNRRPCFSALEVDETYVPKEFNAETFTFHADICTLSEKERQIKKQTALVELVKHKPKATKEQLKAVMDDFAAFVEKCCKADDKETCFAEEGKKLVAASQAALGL

One may read the pKa as the negative logarithm of the acid dissociation constant. Read a high pKa as a group that holds its proton tightly. Turning to `C[C@H](C1CC1C(=O)O)[C@H]1CC[C@H]2[C@@H]3[C@@H](O)C[C@@H]4C[C@H](O)CC[C@]4(C)[C@H]3CC[C@]12C` (single isomer, unassigned) [Isom. A, 22,23-methanate-ursodeoxycholic acid], in series [1], the “CMC (H2O)” value stood at 25 mM and the “CMC (Na^+ 0.15 M)” value was 16 mM. For the same compound, in series [2], the “K' (retention factor)” value worked out at 0.21. In series [3] (pKa), the pKa was determined as 5.03.

For `C[C@H](C1CC1C(=O)O)[C@H]1CC[C@H]2[C@@H]3[C@@H](O)C[C@@H]4C[C@H](O)CC[C@]4(C)[C@H]3CC[C@]12C` (single isomer, unassigned) [Isom. B, 22,23-methanate-ursodeoxycholic acid], in series [1], the “CMC (H2O)” value was found to be 20 mM and the “CMC (Na^+ 0.15 M)” value is recorded as 12 mM. Besides, the “K' (retention factor)” value in series [2] is reported as 0.80. This compound also displayed a pKa in series [3] of 5.06.

Turning to `C[C@H](C1CC1C(=O)O)[C@H]1CC[C@H]2[C@@H]3[C@@H](O)C[C@@H]4C[C@H](O)CC[C@]4(C)[C@H]3CC[C@]12C` (single isomer, unassigned) [Isom. C, 22,23-methanate-ursodeoxycholic acid], in series [1], the “CMC (H2O)” value came out at 14 mM and the “CMC (Na^+ 0.15 M)” value worked out at 8 mM. In series [2], the “K' (retention factor)” value was 1.30. In series [3], this compound yielded a pKa of 5.02.

In the case of `C[C@H](C1CC1C(=O)O)[C@H]1CC[C@H]2[C@@H]3[C@@H](O)C[C@@H]4C[C@H](O)CC[C@]4(C)[C@H]3CC[C@]12C` (single isomer, unassigned) [Isom. D, 22,23-methanate-ursodeoxycholic acid], in series [1], the “CMC (H2O)” value was 10 mM and the “CMC (Na^+ 0.15 M)” value came to 6 mM. Moreover, in series [2], the “K' (retention factor)” value is 2.05. Further, the pKa in series [3] is given as 5.04.

Broadly, the Kd is the concentration at which binding is half-saturated. A high value points to weaker binding. With `C[C@H](C1CC1C(=O)O)[C@H]1CC[C@H]2[C@@H]3[C@@H](O)C[C@@H]4C[C@H](O)CC[C@]4(C)[C@H]3CC[C@]12C` (stereo partly drawn) [CUDCA, 3α, 7β-dihydroxy-22,23-methylene-5β-cholan-24-oic acid], in series [4], the hepatic extraction ratio stood at 0.46 ± 0.01. Besides, in series [5], the Bile flow was 1.68 ± 0.20 mL/h, the Cholesterol secretion amounted to 2.70 ± 0.14 µmol/kg/h, the Phospholipid secretion was 9.50 ± 0.44 ^.parallel.mol kg^-1 h^- and the “BA (bile acids) secretion” value is 97 ± 9 µmol/kg/h. In series [6], the Kd was 14.7 µM.

The chromatographic logD is a lipophilicity value derived from retention on a column. Lower therefore signals lower lipophilicity. As for `C[C@H](CCC(=O)O)[C@H]1CC[C@H]2[C@@H]3[C@@H](O)C[C@H]4C[C@H](O)CC[C@]4(C)[C@H]3CC[C@]12C` [UDCA, 3α, 7β-dihydroxy-5α-cholan-24-oic acid, reference compound], in series [5], the Bile flow amounted to 1.08 ± 0.15 mL/h, the Cholesterol secretion is 2.12 ± 0.09 µmol/kg/h, the Phospholipid secretion is 6.47 ± 0.54 ^.parallel.mol kg^-1 h^- and the “BA (bile acids) secretion” value worked out at 98 ± 7 µmol/kg/h. In series [1], the “CMC (H2O)” value was 19 mM and the “CMC (Na^+ 0.15 M)” value is listed as 11 mM. Also, the chromatographic logD in series [2] (pH 5.7, K' (retention factor)) was -0.0223. The compound further came in with a pKa in series [3] (pKa) of 5.06.

These data come from patent publication US4565810A, “Derivatives of biliary acids, process for the production thereof and pharmaceutical compositions containing the same” (Lehner A.G., priority 1983, dated 1986).
